Patent US8350027B2, “Dual-acting pyrazole antihypertensive agents” (Theravance, Inc., priority 2009, dated 2013)

How the values were obtained:
[1] = target: T1, human AT1 receptor (Homo sapiens, UniProt P30556); assay: AT1 radioligand binding assay (displacement of [Eu]AngII); details: membranes of CHO-K1 cells expressing cloned human AT1 receptor; values given as lower bounds; read-out: AT1 pKi (converted)
T1 construct: expressed in transfected cells; host or cells: CHO-K1
T1 sequence (P30556 1-359): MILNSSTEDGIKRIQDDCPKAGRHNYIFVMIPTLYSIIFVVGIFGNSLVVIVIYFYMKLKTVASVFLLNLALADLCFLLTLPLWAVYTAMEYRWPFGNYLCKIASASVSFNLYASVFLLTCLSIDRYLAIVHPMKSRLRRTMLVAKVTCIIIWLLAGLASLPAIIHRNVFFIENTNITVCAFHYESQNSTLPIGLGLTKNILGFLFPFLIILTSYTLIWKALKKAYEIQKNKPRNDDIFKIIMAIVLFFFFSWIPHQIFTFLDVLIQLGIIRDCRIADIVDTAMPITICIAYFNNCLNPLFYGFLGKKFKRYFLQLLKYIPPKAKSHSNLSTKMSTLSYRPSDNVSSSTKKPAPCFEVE
Procedure, shortened: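 Membranes from CHO-K1 cells stably expressing cloned human AT1, 0.2 μg protein, in 50 mM Tris/HCl pH 7.5, 5 mM MgCl2, 0.025% BSA. Compounds displaced [Eu]AngII over 120 min in the dark at room temperature or 37° C; filter-bound TRF read. Nonspecific binding with 10 μM angiotensin II; IC50 converted to Ki via Cheng-Prusoff, reported as pKi.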

[2] = target: T2, NEP enzyme (Homo sapiens, UniProt P08473); assay: NEP enzyme inhibition assay (fluorogenic peptide substrate); type: biochemical; details: values given as lower bounds; * = prodrugs, may not exhibit NEP activity in an in vitro assay; read-out: NEP pIC50 (converted)
T2 construct: purchased R&D Systems, Minneapolis, Minn; 1182-ZN
T2 sequence (P08473 52-750 limits assumed): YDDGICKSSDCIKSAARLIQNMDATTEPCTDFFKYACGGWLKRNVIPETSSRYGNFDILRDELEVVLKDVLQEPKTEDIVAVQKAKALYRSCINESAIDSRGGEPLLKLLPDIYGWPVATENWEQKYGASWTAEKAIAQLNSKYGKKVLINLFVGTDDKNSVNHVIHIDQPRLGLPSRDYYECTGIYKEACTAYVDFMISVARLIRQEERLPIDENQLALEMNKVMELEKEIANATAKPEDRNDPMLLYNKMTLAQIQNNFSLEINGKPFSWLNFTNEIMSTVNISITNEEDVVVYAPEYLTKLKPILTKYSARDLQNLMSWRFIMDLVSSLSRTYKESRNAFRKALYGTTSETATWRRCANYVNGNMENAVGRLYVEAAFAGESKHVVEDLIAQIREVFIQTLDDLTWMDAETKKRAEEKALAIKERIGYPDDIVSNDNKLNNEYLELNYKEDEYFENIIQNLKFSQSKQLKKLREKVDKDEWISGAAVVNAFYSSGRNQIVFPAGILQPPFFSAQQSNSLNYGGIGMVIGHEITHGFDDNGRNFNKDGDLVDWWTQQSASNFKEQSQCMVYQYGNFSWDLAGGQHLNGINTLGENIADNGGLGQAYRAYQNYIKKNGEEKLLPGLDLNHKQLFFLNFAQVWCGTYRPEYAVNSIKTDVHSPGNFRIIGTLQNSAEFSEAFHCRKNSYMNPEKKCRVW
Procedure, shortened: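 Recombinant human NEP was run with Mca-BK2 (10 μM) at room temperature in Tris buffer with 1 μM Zn. Compounds (10 μM–20 pM, 12 points) were pre-equilibrated 10 min, then reacted 20 min and acid-stopped. Fluorescence ex 320/em 405 nm, one-site competition fit gives pIC50. Thiol compounds may be pre-treated with 400 μM TCEP.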

SMILES	Ki [1] [nM]	IC50 [2] [nM]
CCCc1cc(C(=O)N[C@H](Cc2ccccc2)[C@@H](O)C(=O)O)nn1Cc1ccc(-c2ccccc2S(=O)(=O)NC(=O)CC)cc1 [Example 7-10, (2R,3R)-2-Hydroxy-4-phenyl-3-{[1-(2′-propionylsulfamoylbiphenyl-4-ylmethyl)-5-propyl-1H-pyrazole-3-carbonyl]amino}butyric acid]	≤ 10	≤ 100
CCCc1cc(C(=O)N[C@@H](CS)Cc2ccccc2)nn1Cc1ccc(-c2ccccc2-c2nnn[nH]2)c(F)c1 [Example 3-11, 1-((2-Fluoro-2′-(1H-tetrazol-5-yl)biphenyl-4-yl)methyl)-N-((R)-1-mercapto-3-phenylpropan-2-yl)-5-propyl-1H-pyrazole-3-carboxamide]	≤ 10	≤ 100
CCCc1cc(C(=O)N[C@@H](CC(=O)NO)Cc2ccccc2)nn1Cc1ccc(-c2ccccc2S(=O)(=O)NC(C)=O)c(F)c1 [Example 6-17, 1-(2′-Acetylsulfamoyl-2-fluorobiphenyl-4-ylmethyl)-5-propyl-1H-pyrazole-3-carboxylic acid ((R)-1-hydroxycarbamoylmethyl-2-phenylethyl)amide]	≤ 10	≤ 100
CCCc1cc(C(=O)N[C@H](Cc2ccccc2)[C@@H](O)C(=O)O)nn1Cc1ccc(-c2ccccc2S(=O)(=O)NC(C)=O)cc1 [Example 4, (2R,3R)-3-(1-((2′-(N-Acetylsulfamoyl)biphenyl-4-yl)methyl)-5-propyl-1H-pyrazole-3-carboxamido)-2-hydroxy-4-phenylbutanoic Acid]	≤ 10	≤ 100
CCCc1cc(C(=O)N[C@@H](CC(=O)OC)Cc2ccccc2Cl)nn1Cc1ccc(-c2ccccc2-c2nnn[nH]2)cc1 [Example 3-28, (R)-4-(2-Chlorophenyl)-3-({5-propyl-1-[2′-(1H-tetrazol-5-yl)biphenyl-4-ylmethyl]-1H-pyrazole-3-carbonyl}amino)butyric acid methyl ester]	≤ 10	≤ 10000
CCCc1cc(C(=O)N[C@@H](CC(=O)O)Cc2ccccc2Cl)nn1Cc1ccc(-c2ccccc2-c2nnn[nH]2)cc1F [Example 3-20, (R)-4-(2-chlorophenyl)-3-(1-((3-fluoro-2′-(1H-tetrazol-5-yl)biphenyl-4-yl)methyl)-5-propyl-1H-pyrazole-3-carboxamido)butanoic acid]	≤ 100	≤ 1000
CCCc1cc(C(=O)N[C@@H](CC(=O)O)Cc2ccccc2Cl)nn1Cc1ccc(-c2ccccc2-c2nnn[nH]2)cc1 [Example 3-34, (R)-4-(2-Chlorophenyl)-3-({5-propyl-1-[2′-(1H-tetrazol-5-yl)biphenyl-4-ylmethyl]-1H-pyrazole-3-carbonyl}amino)butyric acid]	≤ 10	≤ 10000
CCCc1cc(C(=O)N[C@@H](CC(=O)NO)Cc2ccccc2)nn1Cc1ccc(-c2ccccc2-c2nnn[nH]2)cc1 [Example 3-16, 5-Propyl-1-[2′-(1H-tetrazol-5-yl)-biphenyl-4-ylmethyl]-1H-pyrazole-3-carboxylic acid ((R)-1-hydroxycarbamoylmethyl-2-phenylethyl)amide]	≤ 10	≤ 100
CCCc1cc(C(=O)N[C@H](Cc2ccccc2)[C@@H](O)C(=O)O)nn1Cc1ccc(-c2ccccc2S(=O)(=O)NC(=O)N2CCOCC2)cc1 [Example 7-22, (2R,3R)-2-Hydroxy-3-[(1-{2′-[(morpholine-4-carbonyl)sulfamoyl]biphenyl-4-ylmethyl}-5-propyl-1H-pyrazole-3-carbonyl)amino]-4-phenylbutyric acid]	≤ 100	≤ 100
CCCc1cc(C(=O)N[C@H](Cc2ccccc2)[C@@H](O)C(=O)O)nn1Cc1ccc(-c2ccccc2-c2nnn[nH]2)c(F)c1 [Example 3-10, (2R,3R)-3-(1-((2-Fluoro-2′-(1H-tetrazol-5-yl)biphenyl-4-yl)methyl)-5-propyl-1H-pyrazole-3-carboxamido)-2-hydroxy-4-phenylbutanoic acid]	≤ 10	≤ 1000
CCCc1cc(C(=O)N[C@@H](CC(=O)O)Cc2ccccc2Cl)nn1Cc1cnc(-c2ccccc2-c2nnn[nH]2)nc1 [Example 18, (R)-4-(2-Chlorophenyl)-3-[(5-propyl-1-{2-[2-(1H-tetrazol-5-yl)phenyl]pyrimidin-5-ylmethyl}-1H-pyrazole-3-carbonyl)amino]butyric acid]	≤ 100	≤ 1000
CCCc1cc(C(=O)N[C@H](Cc2ccccc2)[C@@H](O)C(=O)O)nn1Cc1ccc(-c2ccccc2S(=O)(=O)NC(=O)c2ccccc2F)cc1 [Example 7-3, (2R,3R)-3-({1-[2′-(2-Fluorobenzoylsulfamoyl)biphenyl-4-ylmethyl]-5-propyl-1H-pyrazole-3-carbonyl}amino)-2-hydroxy-4-phenylbutyric acid]	≤ 10	≤ 1000
CCOc1cc(C(=O)N[C@@H](CS)Cc2ccccc2)nn1Cc1ccc(-c2ccccc2C(=O)O)cc1F [Example 9-2, 4′-[3-((R)-1-Benzyl-2-mercaptoethylcarbamoyl)-5-ethoxypyrazol-1-ylmethyl]-3′-fluorobiphenyl-2-carboxylic acid]	≤ 100	≤ 100
CCOc1cc(C(=O)N[C@H](Cc2ccccc2)[C@@H](O)C(=O)O)nn1Cc1ccc(-c2ccccc2-c2nnn[nH]2)cc1F [Example 3-8, (2R,3R)-3-({5-Ethoxy-1-[3-fluoro-2′-(1H-tetrazol-5-yl)biphenyl-4-ylmethyl]-1H-pyrazole-3-carbonyl}amino)-2-hydroxy-4-phenylbutyric acid]	≤ 100	≤ 1000
CCCc1cc(C(=O)N[C@H](CC(C)C)CN(O)C=O)nn1Cc1ccc(-c2ccccc2S(=O)(=O)NC(C)=O)cc1 [Example 6-15, 1-(2′-Acetylsulfamoyl-biphenyl-4-ylmethyl)-5-propyl-1H-pyrazole-3-carboxylic acid {(R)-1-[(formyl-hydroxy-amino)-methyl]-3-methylbutyl}amide]	≤ 10	≤ 100
CCOc1cc(C(=O)N[C@@H](CS)Cc2ccccc2)nn1Cc1ccc(-c2ccccc2-c2nnn[nH]2)cc1F [Example 3-1, 5-Ethoxy-1-[3-fluoro-2′-(1H-tetrazol-5-yl)biphenyl-4-ylmethyl]-1H-pyrazole-3-carboxylic acid ((R)-1-benzyl-2-mercaptoethyl)amide]	≤ 10	≤ 100
CCCc1cc(C(=O)N[C@@H](CC(=O)O)Cc2ccccc2C)nn1Cc1ccc(-c2ccccc2-c2nnn[nH]2)cc1 [Example 3-35, (R)-3-({5-Propyl-1-[2′-(1H-tetrazol-5-yl)biphenyl-4-ylmethyl]-1H-pyrazole-3-carbonyl}amino)-4-o-tolylbutyric acid]	≤ 10	≤ 10000

Now from value to compound:

Ki [1] [nM]	IC50 [2] [nM]	SMILES
≤ 10	≤ 100	CCCc1cc(C(=O)N[C@@H](CC(=O)O)Cc2ccccc2)nn1Cc1ccc(-c2ccccc2-c2nnn[nH]2)nc1 [Example 14-6, (R)-4-Phenyl-3-[(5-propyl-1-{6-[2-(1H-tetrazol-5-yl)-phenyl]-pyridin-3-ylmethyl}-1H-pyrazole-3-carbonyl)amino]butyric acid]
≤ 10	≤ 1000	CCCc1cc(C(=O)N[C@@H](CC(=O)O)Cc2ccccc2Cl)nn1Cc1ccc(-c2ccccc2-n2nn[nH]c2=O)cc1 [Example 16-5, (R)-4-(2-Chlorophenyl)-3-({1-[2′-(5-oxo-4,5-dihydrotetrazol-1-yl)-biphenyl-4-ylmethyl]-5-propyl-1H-pyrazole-3-carbonyl}amino)butyric acid]
≤ 10	≤ 1000	CCCc1cc(C(=O)N[C@H](Cc2ccccc2)[C@@H](O)C(=O)O)nn1Cc1ccc(-c2ccccc2-c2nnn[nH]2)cn1 [Example 15-1, (2R,3R)-2-Hydroxy-4-phenyl-3-[(5-propyl-1-{5-[2-(1H-tetrazol-5-yl)phenyl]pyridin-2-ylmethyl}-1H-pyrazole-3-carbonyl)amino]butyric acid]
≤ 10	≤ 100	CCCc1cc(C(=O)N[C@H](Cc2ccccc2)[C@H](O)C(=O)O)nn1Cc1ccc(-c2ccccc2-c2nnn[nH]2)nc1 [Example 14-9, (2S,3R)-2-Hydroxy-4-phenyl-3-[(5-propyl-1-{6-[2-(1H-tetrazol-5-yl)phenyl]pyridin-3-ylmethyl}-1H-pyrazole-3-carbonyl)amino]butyric acid]
≤ 10	≤ 100	CCCc1cc(C(=O)N[C@@H](CC(=O)O)Cc2ccc(F)cc2)nn1Cc1ccc(-c2ccccc2-c2nnn[nH]2)nc1 [Example 14-13, (R)-4-(4-Fluorophenyl)-3-[(5-propyl-1-{6-[2-(1H-tetrazol-5-yl)phenyl]pyridin-3-ylmethyl}-1H-pyrazole-3-carbonyl)amino]butyric acid]
≤ 100	≤ 1000	CCCc1cc(C(=O)N[C@@H](CC(=O)O)Cc2ccccc2Cl)nn1Cc1ccc(-c2ccccc2S(=O)(=O)NC(C)=O)cn1 [Example 15-4, (R)-3-({1-[5-(2-Acetylsulfamoylphenyl)pyridin-2-ylmethyl]-5-propyl-1H-pyrazole-3-carbonyl}amino)-4-(2-chlorophenyl)butyric acid]
